According to patent US12479818B2, “Treatment of fibrosis with IRE1 small molecule inhibitors” (Cornell University, priority 2019, dated 2025):

target: IRE1a (Homo sapiens, UniProt O75460); test: IRE1a Endoribonuclease Nanoluciferase Assay (XBP1 luciferase reporter in 293T cells); type: cell-based; set-up: endogenous in cells; host or cells: 293T; settings: XBP1 nanoluciferase reporter in 293T cells, ER stressor; tested as the salt named
Procedure: Compounds disclosed herein were assessed for disruption of IRE1 signaling using a IRE1a Endoribonuclease Nanoluciferase Assay. […] About 24 hours later, the cells were transfected with Effectene. In a 15 mL tube, the following was added: 2 ug XBP1 luciferase reporter plasmid (PGK-Luc2-P2A-XBP1u-Nanoluciferase-PEST); 300 ul EC buffer; and 16 ul Enhancer, followed by incubation at room temp for 5 minutes. […] 2.6 mL cDMEM media was added. Old media was aspirated from the cells, followed by addition of 7 mL fresh media. Full transfection mixture was added dropwise to cells. Cells were incubated for 6 hours, followed by trypsinization, centrifugation and resuspension in 11 mL fresh cDMEM media. 100 μL of cells were plated per a well in a 96 well plate. A day later, ER stressors of choice +/− inhibitors were added. To harvest, media was aspirated from cells completely, then 50 uL 1× passive lysis buffer (Promega: E1941) was added per well and put on shaker (300 rpm) for 30 minutes at room temperature. […] 15 uL OneGlo (nanoluciferase kit, Promega N1630) was added. Plates were spun down, placed on shaker (300 rpm) for 10 minutes. Plates were read on luminometer, 1000 ms integration time per well. 15 uL Stop and Glo (nanoluciferase kit) was added. Plates were spun down, placed on shaker (300 rpm) for 10 minutes. Plates were read on luminometer, 1000 ms second integration time per well.

Sequence of IRE1a (O75460 19-977): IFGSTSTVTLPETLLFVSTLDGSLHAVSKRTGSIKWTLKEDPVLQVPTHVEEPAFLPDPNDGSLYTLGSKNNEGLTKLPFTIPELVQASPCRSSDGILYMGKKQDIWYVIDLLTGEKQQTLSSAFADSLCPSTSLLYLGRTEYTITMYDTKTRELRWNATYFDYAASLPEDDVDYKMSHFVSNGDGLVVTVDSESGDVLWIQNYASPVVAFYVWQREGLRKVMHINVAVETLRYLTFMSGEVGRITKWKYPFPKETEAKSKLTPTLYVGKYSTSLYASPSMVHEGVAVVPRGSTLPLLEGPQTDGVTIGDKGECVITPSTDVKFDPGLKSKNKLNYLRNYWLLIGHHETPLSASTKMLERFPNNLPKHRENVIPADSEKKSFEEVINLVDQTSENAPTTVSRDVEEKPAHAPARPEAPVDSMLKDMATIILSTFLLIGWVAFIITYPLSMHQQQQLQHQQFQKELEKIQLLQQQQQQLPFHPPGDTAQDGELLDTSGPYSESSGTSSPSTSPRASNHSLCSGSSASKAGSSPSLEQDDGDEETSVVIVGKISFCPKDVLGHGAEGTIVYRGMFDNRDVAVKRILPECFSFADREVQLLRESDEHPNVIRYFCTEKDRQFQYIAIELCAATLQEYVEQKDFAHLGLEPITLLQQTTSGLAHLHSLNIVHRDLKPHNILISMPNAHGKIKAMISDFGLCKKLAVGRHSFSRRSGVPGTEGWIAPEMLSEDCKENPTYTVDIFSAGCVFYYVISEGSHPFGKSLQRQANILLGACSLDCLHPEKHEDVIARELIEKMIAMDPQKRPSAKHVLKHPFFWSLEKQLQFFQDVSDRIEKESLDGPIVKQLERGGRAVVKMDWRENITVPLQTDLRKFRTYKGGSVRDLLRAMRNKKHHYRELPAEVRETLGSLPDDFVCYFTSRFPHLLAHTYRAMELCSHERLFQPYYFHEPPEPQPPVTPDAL

Row | Structure (SMILES) | EC50 [nM]
1 | CCc1c(F)c(-c2ccc(NS(=O)(=O)c3ccccc3Cl)nc2C)cc2cnc(N[C@H]3CC[C@H](N(C)C)CC3)nc12 [Compound 161, 2-chloro-N-(5-(2-(((1r,4r)-4-(dimethylamino)cyclohexyl)amino)-8-ethyl-7-fluoroquinazolin-6-yl)-6-methylpyridin-2-yl)benzenesulfonamide] | < 5
2 | COc1nc(NS(=O)(=O)c2ccccc2Cl)ccc1-c1cc2cnc(N[C@H]3CC[C@H](N(C)C)CC3)nc2cc1C [Compound 108, 2-chloro-N-(5-(2-(((1r,4r)-4-(dimethylamino)cyclohexyl)amino)-7-methylquinazolin-6-yl)-6-methoxypyridin-2-yl)benzenesulfonamide] | < 5
3 | CCc1cc(-c2ccc(NS(=O)(=O)c3ccccc3Cl)c(F)c2)cc2cnc(N[C@H]3CC[C@H](N(C)C)CC3)nc12 [Compound 69] | < 5
4 | CCc1cc(-c2ccc(NS(=O)(=O)c3cccc(C)c3Cl)nc2C)cc2cnc(N[C@H]3CC[C@H](N(C)C)CC3)nc12 [Compound 160, 2-chloro-N-(5-(2-(((1r,4r)-4-(dimethylamino)cyclohexyl)amino)-8-ethylquinazolin-6-yl)-6-methylpyridin-2-yl)-3-methylbenzenesulfonamide] | < 5
5 | CCc1cc(-c2ccc(NS(=O)(=O)c3ccccc3Cl)c(F)c2C)cc2cnc(N[C@H]3CC[C@H](N)CC3)nc12 [Compound 71, N-(4-(2-(((1r,4r)-4-aminocyclohexyl)amino)-8-ethylquinazolin-6-yl)-2-flouro-3-methylphenyl)-2-chlorobenzene-sulfonamide] | < 5
6 | CCc1cc(-c2ccc(NS(=O)(=O)c3ccccc3Cl)c(F)c2)cc2cnc(N[C@H]3CC[C@H](NC(C)=O)CC3)nc12 [Compound 59, N-((1r,4)-4-((6-(4-((2-chlorophenyl)sulfonamido)-3-fluorophenyl)-8-ethylquinazolin-2-yl)amino)cyclohexyl) acetamide] | 50 to 100
7 | CCc1cc(-c2ccc(NS(=O)(=O)c3ccccc3Cl)c(F)c2)cc2cnc(NC34CCC(N)(CC3)CC4)nc12 [Compound 87, N-(4-(2-((4-aminobicyclo[2.2. 2]octan-1-yl)-amino)-8-ethylquinazolin-6-yl)-2-fluorophenyl)-2-chlorobenzene-sulfonamide] | < 5
8 | CCc1cc(-c2ccc(NS(=O)(=O)c3ccccc3Cl)cn2)cc2cnc(N[C@H]3CC[C@H](N)CC3)nc12 [Compound 28, N-(6-(2-(((1r,4r)-4-aminocyclohexyl)amino)-8-ethylquinazolin-6-yl)pyridin-3-yl)-2-chlorobenzene-sulfonamide] | < 5

The remaining lines, values ahead:

Row | EC50 [nM] | Structure (SMILES)
9 | < 5 | CCc1cc(-c2ccc(NS(=O)(=O)c3ccccc3Cl)nc2C)cc2cnc(NC3CCC(N(C)CC)CC3)nc12 (stereo not drawn) [Compound 125, 2-chloro-N-(5-(8-ethyl-2-(((1r,4r)-4-(ethyl(methyl)amino)cyclohexyl)amino)quinazolin-6-yl)-6-methylpyridin-2-yl)benzenesulfonamide]
10 | < 5 | CCc1cc(-c2ccc(NS(=O)(=O)c3cccc(F)c3Cl)nc2C)cc2cnc(N[C@H]3CC[C@H](N(C)C)CC3)nc12 [Compound 158, 2-chloro-N-(5-(2-(((1r,4r)-4-(dimethylamino)cyclohexyl)amino)-8-ethylquinazolin-6-yl)-6-methylpyridin-2-yl)-3-fluorobenzenesulfonamide]
11 | 5 to 50 | O=S(=O)(Nc1ccc(-c2ccc3nc(N[C@H]4CCCNC4)ncc3c2)cc1F)c1ccccc1Cl [Compound 76, (S)-2-chloro-N-(2-fluoro-4-(2-(piperidin-3-ylamino)quinazolin-6-yl)phenyl) benzene-sulfonamide]
12 | < 5 | CCc1cc(-c2cc(F)c(NS(=O)(=O)c3ccccc3Cl)nc2C)cc2cnc(N[C@H]3CC[C@H](N(C)C)CC3)nc12 [Compound 97, 2-chloro-N-(5-(2-(((1r,4r)-4-(dimethylamino)cyclohexyl)amino)-8-ethylquinazolin-6-yl)-3-fluoro-6-methylpyridin-2-yl)benzenesulfonamide]
